Measured values from paper PMC9311539, “Antibacterial Activity against Clinical Isolates and In Vivo Efficacy of Coralmycins” (Antibiotics, 2022).
In brackets after ≈: the same amount, converted by molar mass. Read-outs that look alike come from different tables or passages of the source.

Columns and labels:
[1] = system: MRSA; experiment: MIC, broth microdilution, clinical isolates: MRSA; type: cell-based, Staphylococcus aureus; conditions: Staphylococcus aureus, MRSA, 42 clinical isolates
Experimental: (§1) To assess the MICs for antibiotic susceptibility, Gram-positive bacteria isolated from human clinical specimens were obtained from several general hospitals in Seoul, Korea, during 2002–2018. Staphylococcus aureus Giorgio and Streptococcus pneumoniae ATCC49619 were used to test in vivo efficacies against […], in mice.
(§2) The MICs of the antimicrobial agents were determined by a twofold microdilution broth method, as described by the Clinical and Laboratory Standards Institute. Briefly, test organisms were grown on Mueller–Hinton agar (MHA, BD Difco, Sparks, MD, USA) plates, subcultured into cation-adjusted Mueller–Hinton broth (CAMHB, BD Difco, Sparks, MD, USA), and incubated for 18 h at 35 °C. For S. pneumoniae culture, 5% sheep blood (Hanil Comed, Seongnam, Korea) was added. The cultured bacteria were diluted using phosphate-buffered saline (PBS) to achieve a bacterial cell density of approximately 5 × 10^6 CFU/mL. All test organisms were loaded into 96-well plates containing serial dilutions of the antimicrobial agents to achieve a concentration of 5 × 10^4 CFU/well. The plates were incubated at 35 °C for 18–20 h and examined for bacterial growth.

[2] = system: S. pneumoniae ATCC49619; experiment: Time-kill assay, S. pneumoniae ATCC49619; type: cell-based, Streptococcus pneumoniae; conditions: 2× and 4× MIC, 24 h
Experimental: (§3) Time-kill analysis was performed by the NCCLS M26-A method. The test organisms (S. aureus Giorgio, S. pneumoniae ATCC49619, MRSA CCARM 3167, and VRE 3) incubated in CAMHB for 18 h at 35 °C were diluted to 10^5 CFU/mL with fresh CAMHB, and the diluted cultures were preincubated for 2 h. For S. pneumoniae culture, 5% sheep blood (Hanil Comed, Seongnam, Korea) was added. […] Culture aliquots (0.1 mL) were removed after 0, 2, 4, 6 and 24 h of incubation, and serial 10-fold dilutions were prepared in saline as needed. The numbers of viable cells were determined on drug-free MHA plates after 20 h of incubation. A compound was considered bactericidal if the original inoculum was reduced by 3 log CFU/mL (99.9%) at each concentration or was considered bacteriostatic if the inoculum was reduced by 0–3 log CFU/mL.

[3] = system: S. pneumoniae ATCC49619; experiment: MIC against S. pneumoniae ATCC49619; type: cell-based; conditions: Streptococcus pneumoniae, ATCC49619; read-out: MIC
Experimental: as §2

[4] = system: Vancomycin-sensitive E. faecalis; experiment: MIC, broth microdilution, clinical isolates: vancomycin-sensitive E. faecalis; type: cell-based, Enterococcus faecalis; conditions: Enterococcus faecalis, 32 clinical isolates
Experimental: as §1, §2

[5] = system: VRE; experiment: MIC, broth microdilution, clinical isolates: VRE; type: cell-based, vancomycin-resistant Enterococcus
Experimental: as §1, §2

[6] = system: MSSA; experiment: MIC, broth microdilution, clinical isolates: MSSA; type: cell-based; conditions: Staphylococcus aureus, 26 clinical isolates
Experimental: as §1, §2

[7] = system: S. aureus Giorgio; experiment: MIC against S. aureus Giorgio; type: cell-based, Staphylococcus aureus; conditions: Staphylococcus aureus; read-out: MIC
Experimental: as §2

[8] = system: MRSA CCARM 3167; experiment: Time-kill assay, MRSA CCARM 3167; type: cell-based, Staphylococcus aureus; conditions: 2× and 4× MIC, 24 h
Experimental: as §3

[9] = system: CNS (coagulase-negative staphylococci); experiment: MIC, broth microdilution, clinical isolates: CNS; type: cell-based; conditions: 31 clinical isolates
Experimental: as §1, §2

[10] = system: S. pneumoniae ATCC49619; experiment: Neutropenic mouse respiratory tract infection model; type: in vivo, female ICR mice
Experimental: For the respiratory tract infection model, neutropenic mice were anesthetized and intranasally inoculated with a 50 μL suspension of S. pneumoniae ATCC49619 (4.4 × 10^8 CFU/mL). For the thigh infection model, the neutropenic mice were administered an intramuscular injection of a 100 μL suspension of S. aureus Giorgio (1 × 10^6 CFU/mL) into both thighs. For both models, four mice were included in each group. At 2 h after infection, two mice were sacrificed, and the infected thighs or lungs (n = 4) were excised to determine the initial bacterial levels. […] At 24 h after infection, the mice were sacrificed by cervical dislocation; their thighs or lungs were removed, homogenized, serially diluted with saline, and plated onto MHA to count the number of bacteria remaining. The number of viable bacterial cells (CFU) in the thighs or lungs of vehicle- and drug-treated mice was determined.

[11] = system: VRE 3; experiment: MIC against VRE 3; type: cell-based, vancomycin-resistant Enterococcus; conditions: Enterococcus, read-out: MIC
Experimental: as §2

[12] = system: S. pneumoniae; experiment: MIC, broth microdilution, clinical isolates: S. pneumoniae; type: cell-based, Streptococcus pneumoniae
Experimental: as §1, §2

[13] = system: MRSA CCARM 3167; experiment: MIC against MRSA CCARM 3167; type: cell-based; conditions: Staphylococcus aureus; read-out: MIC
Experimental: as §2

[14] = system: VRE 3; experiment: Time-kill assay, VRE 3; type: cell-based, vancomycin-resistant Enterococcus; conditions: 2× and 4× MIC, 24 h
Experimental: as §3

[15] = system: S. aureus Giorgio; experiment: Time-kill assay, S. aureus Giorgio; type: cell-based, Staphylococcus aureus; conditions: 2× and 4× MIC, 24 h
Experimental: as §3

[16] = cited from earlier work
[17] = system: Vancomycin-sensitive E. faecium; experiment: MIC, broth microdilution, clinical isolates: vancomycin-sensitive E. faecium; type: cell-based, Enterococcus faecium; conditions: Enterococcus faecium, 32 clinical isolates
Experimental: as §1, §2

- MIC50 ([1]; read-out: MIC50): 2 µg/mL (≈ 5.93 µM)
- MIC90 ([1]; read-out: MIC90): 4 µg/mL (≈ 11.9 µM)
- MIC [3]: 2 µg/mL (≈ 5.93 µM)
- MIC50 ([4]; read-out: MIC50): 2 µg/mL (≈ 5.93 µM)
- MIC90 ([4]; read-out: MIC90): 4 µg/mL (≈ 11.9 µM)
- MIC90 ([5]; 46 clinical isolates): 4 µg/mL (≈ 11.9 µM)
- MIC50 ([5]; Enterococcus, VRE, 46 clinical isolates, read-out: MIC50): 2 µg/mL (≈ 5.93 µM)
- MIC90 ([5]; Enterococcus, 46 VRE isolates, read-out: MIC90): 4 µg/mL (≈ 11.9 µM)
- MIC50 ([6]; read-out: MIC50): 2 µg/mL (≈ 5.93 µM)
- MIC90 ([6]; read-out: MIC90): 2 µg/mL (≈ 5.93 µM)
- MIC [7]: 2 µg/mL (≈ 5.93 µM)
- MIC50 ([9]; read-out: MIC50): 2 µg/mL (≈ 5.93 µM)
- MIC90 ([9]; read-out: MIC90): 4 µg/mL (≈ 11.9 µM)
- MIC [11]: 2 µg/mL (≈ 5.93 µM)
- MIC90 ([12]; 27 clinical isolates): 4 µg/mL (≈ 11.9 µM)
- MIC90 ([12]; Streptococcus pneumoniae, 27 S. pneumoniae isolates, read-out: MIC90): 4 µg/mL (≈ 11.9 µM)
- MIC50 ([12]; Streptococcus pneumoniae, 27 clinical isolates, read-out: MIC50): 2 µg/mL (≈ 5.93 µM)
- MIC [13]: 1 µg/mL (≈ 2.96 µM)
- MIC50 ([17]; read-out: MIC50): 2 µg/mL (≈ 5.93 µM)
- MIC90 ([17]; read-out: MIC90): 4 µg/mL (≈ 11.9 µM)
SMILES: CC(=O)NC[C@H]1CN(c2ccc(N3CCOCC3)c(F)c2)C(=O)O1 [Linezolid]
- time-kill activity [2]: bacteriostatic (considered bacteriostatic if the inoculum was reduced by 0–3 log CFU/mL)
- time-kill activity [8]: bacteriostatic (considered bacteriostatic if the inoculum was reduced by 0–3 log CFU/mL)
- in vivo effect (bacteriostatic or bactericidal) ([10]; 4 mg/kg bid s.c.): bacteriostatic
- in vivo effect (bacteriostatic or bactericidal) ([10]; 20 mg/kg bid s.c.): bactericidal
- reduction of the starting bacterial burden compared to the 2-h control group ([10]; second trial, 20 mg/kg bid): 0.75 log10 CFU/lung
- time-kill activity [14]: bacteriostatic (considered bacteriostatic if the inoculum was reduced by 0–3 log CFU/mL)
- time-kill activity [15]: bacteriostatic (considered bacteriostatic if the inoculum was reduced by 0–3 log CFU/mL)
- bound to plasma proteins [16]: 18%
